Counter-ions that a name gives are not always drawn. Like-named read-outs stand apart in the source and are kept apart here.
How the values were obtained:
[1] = induced Straub tail method (antagonist activity); details: for Antagonism (μmol/kg) Straub Tail: in vivo
opiate receptor = opiate receptor assay of Pert et al.; format: binding
Text: (Raven Press, New York, N.Y.), at pp. 33-43. […] Int. Pharmacodyn.

[2] = reversal of morphine-induced analgesia in the tail flick assay; details: reversal of analgesia induced by morphine
δ receptor [3] = target: T1, δ receptor (Homo sapiens, UniProt P41143); experiment: biochemical; format: biochemical
T1 construct: expressed in transfected cells; host or cells: CHO cells

μ receptor [4] = target: T2, μ receptor (Homo sapiens, UniProt P35372); experiment: biochemical; format: biochemical
κ receptor [5] = target: T3, κ receptor (Homo sapiens, UniProt P41145); experiment: biochemical; format: biochemical
T3 construct: expressed in transfected cells; host or cells: CHO cells

μ receptor [6] = target: T2, μ receptor; experiment: biochemical; format: binding
μ receptor [7] = target: T2, μ receptor; experiment: pA2 analysis of antagonist activity against DAMGO dose response curve; format: biochemical
κ receptor [8] = target: T3, κ receptor; experiment: biochemical; format: binding
δ receptor [9] = target: T1, δ receptor; experiment: biochemical; format: binding
[10] = in animals; cited from earlier work
[11] = mouse jump test (physical dependence); format: in vivo; details: 30 min after 100 mg/kg naloxone on day 4; test compound ip days 1-3
Protocol: Antagonist activity, considered a measure of nonaddictiveness, was measured by the opiate receptor assay of Pert et al. (1974) Mol. Pharmacol. 10:868. Antagonist activity was also measured using the induced Straub tail method as described by DeGraw et al. (1978) J. Med Chem. 21:415, and Blumberg et al. (1973) Advances in Chemical Psychopharmacology, Vol. 8, M. Braudy et al. eds. (Raven Press, New York, N.Y.), at pp. 33-43. A direct and simple assay measuring physical dependence is the mouse jump test described by Saelens et al. (1971) Arch. Int. Pharmacodyn. 190:213.
Physical dependence, a more direct measure of non-addictive properties than antagonist activity, was evaluated using the mouse jump test. Mice were injected intraperitoneally 5 times on day 1 with increasing doses of test compound ranging from 8-100 mg/kg body weight. On days 2 and 3 the mice were given 100 mg/kg 4 times. On day 4 all mice received 100 mg/kg of the antagonist naloxone in a single dose. The mice were then caged for 30 min, and a record was made of the number jumping during this time.

[12] = +NaCl, read-out: Opiate Receptor Inhibition (IC50, nM) +NaCl
[13] = −NaCl, read-out: Opiate Receptor Inhibition (IC50, nM) −NaCl

T2 sequence (P35372 whole entry): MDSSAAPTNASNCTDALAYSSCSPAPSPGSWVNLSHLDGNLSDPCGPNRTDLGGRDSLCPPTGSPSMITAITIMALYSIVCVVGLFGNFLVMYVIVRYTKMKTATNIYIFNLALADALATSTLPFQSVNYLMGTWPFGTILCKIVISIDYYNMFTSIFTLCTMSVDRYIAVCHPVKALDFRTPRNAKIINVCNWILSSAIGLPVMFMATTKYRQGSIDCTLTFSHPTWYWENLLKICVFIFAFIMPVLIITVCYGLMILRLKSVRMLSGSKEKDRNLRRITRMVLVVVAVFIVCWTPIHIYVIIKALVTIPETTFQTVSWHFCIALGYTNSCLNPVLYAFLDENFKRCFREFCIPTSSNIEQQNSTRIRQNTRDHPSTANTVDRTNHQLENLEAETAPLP
T1 sequence (P41143 whole entry): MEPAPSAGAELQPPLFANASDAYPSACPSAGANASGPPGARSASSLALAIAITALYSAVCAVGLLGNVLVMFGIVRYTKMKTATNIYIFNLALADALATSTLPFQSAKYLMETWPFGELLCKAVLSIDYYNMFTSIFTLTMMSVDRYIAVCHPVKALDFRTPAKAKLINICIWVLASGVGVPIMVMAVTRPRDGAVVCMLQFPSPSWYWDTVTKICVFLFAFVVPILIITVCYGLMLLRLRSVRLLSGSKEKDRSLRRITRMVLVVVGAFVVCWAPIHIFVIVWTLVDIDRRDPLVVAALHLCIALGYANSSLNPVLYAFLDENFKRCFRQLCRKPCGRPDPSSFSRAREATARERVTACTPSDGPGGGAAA
T3 sequence (P41145 whole entry): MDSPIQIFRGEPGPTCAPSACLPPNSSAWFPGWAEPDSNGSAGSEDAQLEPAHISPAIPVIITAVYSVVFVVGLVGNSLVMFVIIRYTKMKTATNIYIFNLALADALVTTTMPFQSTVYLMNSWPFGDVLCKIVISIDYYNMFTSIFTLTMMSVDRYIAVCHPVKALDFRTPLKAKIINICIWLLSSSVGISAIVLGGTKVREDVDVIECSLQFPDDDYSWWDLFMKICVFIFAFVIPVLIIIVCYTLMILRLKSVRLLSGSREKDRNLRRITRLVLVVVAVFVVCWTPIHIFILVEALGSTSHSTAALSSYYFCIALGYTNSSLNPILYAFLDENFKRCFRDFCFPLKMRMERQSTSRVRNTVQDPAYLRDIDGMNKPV

With `CC(C1CC1)N1CCC23c4c5ccc(O)c4OC2C(O)C=CC3C1C5` (mixture of isomers) (as salt: salt) [N-α-methylcyclopropylmethyl-normorphine (mixture)] [N-[(1R,S)-1-Cyclopropylethyl]-Normorphine] the melting point was 248 to 250 °C.
In the case of `CC(C1CC1)N1CCC23c4c5ccc(O)c4OC2C(O)C=CC3C1C5` (mixture of isomers) [N-α-methylcyclopropylmethyl-normorphine (mixture)] [N-[(1R,S)-1-Cyclopropylethyl]-Normorphine], the “antagonist potency relative to nalorphine” value ([1]; Straub tail method) is reported as “about one-fourth”, the “Antagonism (μmol/kg) Straub Tail” value [1] is reported as 4.5 µmol/kg and the IC50 (opiate receptor; [12]) is reported as 6 nM. It also gave an IC50 (opiate receptor; [13]) of 3 nM.
In the case of `CC(C1CC1)N1CCC23c4c5ccc(O)c4OC2C(O)C=CC3C1C5` (single isomer, unassigned; diastereomer b) [N-α-methylcyclopropylmethyl-normorphine (S isomer), N-methylcyclopropylmethyl-normorphine (diastereomer B)], the IC50 (opiate receptor; [13]) is reported as 0.23 nM, the “Antagonism (μmol/kg) Tail Flick” value [2] is reported as >213 µmol/kg and the melting point is reported as 209 to 210 °C.
In the case of `C[C@H]1[C@H]2Cc3ccc(O)cc3[C@]1(C)CCN2CC1CC1` [Cyclazocine, reference compound], the EC50 (δ receptor [3]) is reported as 2.9 ± 1.9 nM, the “δ % Stim” value (δ receptor [3]) is reported as 82 ± 9% and the “μ % Stim” value (μ receptor [4]) is reported as 33 ± 18%. The EC50 (κ receptor [5]) was 0.8 ± 0.2 nM and the “κ % Stim” value (κ receptor [5]) was 80%.
In the case of `C[C@@H](NC(=O)[C@@H](N)Cc1ccc(O)cc1)C(=O)NCC(=O)N(C)[C@@H](Cc1ccccc1)C(=O)NCCO` [DAMGO, [D-Ala^2, NMePhe^4, Gly^5-ol]-enkephalin], the “κ % Stim” value (κ receptor [5]) is reported as 62%.
For `CCC(C)N1CCC23c4c5ccc(O)c4OC2C(O)C=CC3C1C5` [N-sec-butyl normorphine (R), reference compound], the “Antagonism (μmol/kg) Straub Tail” value [1] was 16.2 µmol/kg, the IC50 (opiate receptor; [12]) was 110 nM and the IC50 (opiate receptor; [13]) was 60 nM.
For `CCC(C)N1CCC23c4c5ccc(O)c4OC2C(O)C=CC3C1C5` [N-sec-butyl normorphine (S), reference compound], the “Antagonism (μmol/kg) Straub Tail” value [1] was 7.4 µmol/kg, the IC50 (opiate receptor; [12]) was 62 nM and the IC50 (opiate receptor; [13]) was 28 nM.
With `C[C@H](C1CC1)N1CC[C@]23c4c5ccc(O)c4O[C@H]2[C@@H](O)C=C[C@H]3[C@H]1C5` [compound 1, N-[(1R)-1-cyclopropylethyl]-normorphine] the “affinity in the opiate assay relative to N-sec-butyl-normorphine” value (opiate receptor; relative to N-sec-butyl-normorphine) was “about 122 times”, the “affinity in the opiate assay relative to morphine” value (opiate receptor; relative to morphine) was “over 43 times” and the IC50 (opiate receptor; [13]) was 7 nM. For the same compound, the “Antagonism (μmol/kg) Tail Flick” value [2] was >213 µmol/kg, the EC50 (δ receptor [3]) was 39.6 ± 6.3 nM and the “functional character at δ” value (δ receptor [3]) was “partial agonist”. The “δ % Stim” value (δ receptor [3]) was 22 ± 6%, the EC50 (μ receptor [4]) was > 10000 nM and the “functional character at the μ receptor” value (μ receptor [4]) was “pure antagonist”. It also gave a Ki (μ receptor [6]) of 0.35 ± 0.06 nM, a Kb (μ receptor [7]) of 1.43 ± 0.16 nM and a Slope (μ receptor [7]; n=6) of −1.04. The pA2 (μ receptor [7]; n=6) was 8.84±0.06, the Ki (κ receptor [8]) was 0.43 ± 0.11 nM and the EC50 (κ receptor [5]) was 15.2 ± 2.5 nM. The “functional character at κ” value (κ receptor [5]) was “partial agonist”, the “κ % Stim” value (κ receptor [5]) was 63 ± 1% and the Ki (δ receptor [9]) was 3.97 ± 0.98 nM. The respiratory depression [10] was “free of respiratory depression” and the therapeutic index [10] was “high therapeutic index”.
In the case of `CN1CC[C@]23c4c5ccc(O)c4O[C@H]2[C@@H](O)C=C[C@H]3[C@H]1C5` [morphine], the “Antagonism (μmol/kg) Straub Tail” value [1] is reported as 1 µmol/kg, the “Antagonism (μmol/kg) Tail Flick” value [2] is reported as 2 µmol/kg and the “number of mice jumping” value [11] is reported as 10/10.
In the case of `C=CCN1CC[C@]23c4c5ccc(O)c4O[C@H]2[C@@H](O)C=C[C@H]3[C@H]1C5` [nalorphine, reference compound], the IC50 (opiate receptor; [12]) is reported as 6 nM, the IC50 (opiate receptor; [13]) is reported as 2 nM and the “Antagonism (μmol/kg) Tail Flick” value [2] is reported as 2.04 µmol/kg.
For (−)SKF 10,047, the “κ % Stim” value (κ receptor [5]) was 49 ± 13% and the EC50 (κ receptor [5]; read-out: κ EC50) was 5.38 ± 2.3 nM.
For “[D-Pen^2,D-Pen^5]-enkephalin [DPDPE, reference compound]”, the “κ % Stim” value (κ receptor [5]) was 77%.

Source: patent US7629355B2 (priority 2003, dated 2009)
